For orientation: IC50 means the concentration at which inhibition is half-maximal.

Each structure is given as a SMILES string.

This note sets out measurements from patent US7247734B2 (Vernalis (Cambridge) Limited, priority 2001, dated 2007).

One test deals with T1, yeast HSP90 (Saccharomyces cerevisiae, UniProt P02829).
T1 construct: made in house; host or cells: E. coli
T1 sequence (P02829 whole entry, looked up): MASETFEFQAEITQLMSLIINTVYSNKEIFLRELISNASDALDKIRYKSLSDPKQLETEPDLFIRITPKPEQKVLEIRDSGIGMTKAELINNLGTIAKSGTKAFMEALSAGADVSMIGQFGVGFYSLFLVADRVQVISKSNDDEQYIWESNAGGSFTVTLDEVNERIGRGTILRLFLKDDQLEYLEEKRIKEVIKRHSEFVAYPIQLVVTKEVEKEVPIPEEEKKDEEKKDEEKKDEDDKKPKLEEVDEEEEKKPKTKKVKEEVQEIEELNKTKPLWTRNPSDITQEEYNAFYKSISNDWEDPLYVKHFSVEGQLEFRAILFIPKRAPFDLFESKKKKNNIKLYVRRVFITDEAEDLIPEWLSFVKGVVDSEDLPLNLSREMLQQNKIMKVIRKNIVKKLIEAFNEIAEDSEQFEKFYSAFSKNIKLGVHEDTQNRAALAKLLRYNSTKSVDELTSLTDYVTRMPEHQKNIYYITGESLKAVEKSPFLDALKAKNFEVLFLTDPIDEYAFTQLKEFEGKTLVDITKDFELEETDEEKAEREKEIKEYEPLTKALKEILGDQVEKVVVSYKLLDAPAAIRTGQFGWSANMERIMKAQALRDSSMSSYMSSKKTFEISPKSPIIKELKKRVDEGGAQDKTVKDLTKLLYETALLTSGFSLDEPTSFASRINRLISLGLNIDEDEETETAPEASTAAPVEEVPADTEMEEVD
Description: Malachite green HSP90 ATPase assay. Type of test: biochemical. The conditions noted are these: Hsp90 IC50, activity class. From the text: Two methods have been developed to measure the intrinsic ATPase activity of HSP90, using yeast HSP90 as a model system. The first method utilises a regenerating coupled enzyme assay. The second assay, based on the use of malachite green for the measurement of inorganic phosphate, was designed for high throughput screening (HTS) to identify novel HSP90 inhibitor drug candidates.
Colorimetric assays for the determination of phosphate, based on the formation of a phosphomolybdate complex, can be carried out in a few steps with inexpensive reagents and are well suited to the automation required for high throughput screening (see, e.g., Cogan et al., 1999). Enzymes that release inorganic phosphate are assayed using the reaction of the cationic dye, malachite green, with the a complex formed by a reaction of the inorganic phosphate with molybdate to generate a blue-green colour with an absorbance maximum at 610 nm (see, e.g., Baykov et al., 1988; Harder et al., 1994; Maehama et al., 2000). The method has been used in both high throughput (see, e.g., Rumsfeld et al., 2000) and ultra-high throughput screening formats (see, e.g., Layery et al., 2001) for a variety of non-HSP90 ATPases. However, this method is complicated by the non-enzymatic hydrolysis of ATP in the presence of acidic malachite green reagent, causing an increase in colour (see, e.g., Chan et al., 1986; Henkel et al., 1988). This process is mediated by molybdate and can be overcome by the addition of sodium citrate immediately after the reagent (see, e.g., Lanzetta et al., 1979; Schirmer et al., 1998; Baginski et al., 1975). This modification has been adapted to the 96-well microtitre plate assay previously described for other ATPases (see, e.g., Lanzetta et al., 1979) to produce the following protocol for HSP90 ATPase, which is suitable for high throughput screening.
Chemicals are of the highest purity commercially available and all aqueous solutions are made up in AR water. Because of the need to minimise contamination with inorganic phosphate, precautions should be taken with solutions and apparatus used in the assays. Glassware and pH meters are rinsed with double distilled or deionised water before use and, wherever possible, plastic ware should be used. Gloves are worn for all procedures. • (1) Immulon 96-well (Thermo Labsystems, Basingstoke, UK) or Cliniplate 384-well flat-bottomed polystyrene multiwell plates (Thermo Labsystems). • (2) Assay buffer of (a) 100 mM Tris-HCl, pH 7.4, (b) 20 mM KCl, (c) 6 mM MgCl2. Stored at 4° C. • (3) 0.0812% (w/v) malachite green (M 9636, Sigma Aldrich Ltd., Poole, UK). Stored at room temperature. • (4) 2.32% (w/v) polyvinyl alcohol USP (P 1097, Sigma Aldrich Ltd, Poole, UK) in boiling water (see Comment 1), allowed to cool, and stored at room temperature. • (5) 5.72% (w/v) ammonium molybdate in 6 M hydrochloric acid. Stored at room temperature. • (6) 34% (w/v) sodium citrate. Stored at room temperature. • (7) ATP, disodium salt, special quality (519979, Boehringer Mannheim, Lewes, UK). Stored at 4° C. • (8) E. coli expressed yeast HSP90 protein, purified >95% (see, e.g., Panaretou et al., 1998) and stored at −80° C. as 10 μl aliquots containing 0.5 mg of protein. Method
The following protocol was used: • (1) On the day of use, prepare the malachite green reagent from the stock solutions. Mix (a) 2 parts of malachite green, (b) 1 part of polyvinyl alcohol, (c) 1 part of ammonium molybdate, and (d) 2 parts of water. Initially, the reagent is a dark brown colour, but after standing at room temperature for about 2 h, this becomes a golden yellow colour and is ready for use. • (2) For the high throughput screening assays, the test compounds are dissolved at 200 μM in 2.0% DMSO and contained in daughter plates derived from the chemical libraries. Transfer 5 μl of each sample from the daughter plate to each well of the assay plate using automated equipment (see Comment 3). This represents a final concentration in the well of 40 μM.
With `CCc1cc(-c2n[nH]c(C)c2-c2ccc3c(c2)OCCO3)c(O)cc1O` [Example 49], the half-inhibitory concentration (IC50) was below 10 µM.

For the molecule `Oc1cc(O)c(-c2n[nH]cc2-c2ccc3c(c2)OCCO3)cc1Cl` [Example 63], the IC50 is below 10 µM. The same measure, in the same setting: under `COc1ccc(-c2c(-c3cc(Cl)c(O)cc3O)n[nH]c2C)cc1` [Example 64] stands below 10 µM; under `Cc1[nH]nc(-c2ccc(O)cc2O)c1-c1ccc2c(c1)OCCO2` [Example 81], 10 to 100 µM; under `COc1ccc(-c2c(-c3ccc(O)cc3O)n[nH]c2C)cc1` [Example 92], 10 to 100 µM. Still for that read-out and setting: under `COc1ccc(-c2c(-c3cc(Br)c(O)cc3O)n[nH]c2C)cc1` [Example 93, 4-Bromo-6-[4-(4-methoxy-phenyl)-5-methyl-1H-pyrazol-3-yl]-benzene-1,3-diol] stands below 10 µM.

The test is the same for the next values; noted with them: activity class; read-out: Hsp90 IC50.
In the case of `CCc1cc(-c2n[nH]cc2-c2ccc(OC)c(OC)c2)c(O)cc1O` [Example 50], the 50% inhibitory concentration (IC50) was below 10 µM. Consider `COc1ccc(-c2c[nH]nc2-c2ccc(O)cc2O)cc1OC` [Example 51], for which the half-inhibitory concentration (IC50) fell in the range of 10 to 100 µM. Turning to `COc1ccc(-c2c[nH]nc2-c2cc(Cl)c(O)cc2O)cc1OC` [Example 52], the concentration for half-maximal inhibition (IC50) is below 10 µM. Turning to `Oc1cc(O)c(-c2n[nH]cc2-c2ccccc2)cc1Cl` [Example 53], the IC50 was below 10 µM.

As for `CCc1cc(-c2n[nH]cc2-c2ccccc2)c(O)cc1O` [Example 54], the half-maximal inhibitory concentration (IC50) is below 10 µM. As for `Oc1ccc(-c2[nH]ncc2-c2ccccc2)c(O)c1` [Example 55], the half-maximal inhibitory concentration (IC50) is 10 to 100 µM.

As to `Oc1ccc(-c2[nH]ncc2-c2ccc(Br)cc2)c(O)c1` [Example 56], the concentration for half-maximal inhibition (IC50) is above 10 µM. As to `Oc1cc(O)c(-c2n[nH]cc2-c2ccc(Br)cc2)cc1Cl` [Example 57], the 50% inhibitory concentration (IC50) was below 10 µM. As to `Cc1[nH]nc(-c2cc(Cl)c(O)cc2O)c1-c1ccc(Br)cc1` [Example 58], the half-inhibitory concentration (IC50) is below 10 µM.

Regarding `Cc1[nH]nc(-c2ccc(O)cc2O)c1-c1ccccc1` [Example 59], the 50% inhibitory concentration (IC50) is above 10 µM. On the same count and under the same terms, in the case of `Oc1cc(O)c(-c2n[nH]cc2-c2ccccc2Br)cc1Cl` [Example 60] it was below 10 µM; in that of `N#CCCCOc1ccc(-c2cn[nH]c2-c2cc(Cl)c(O)cc2O)cc1` [Example 61], below 10 µM; in that of `Oc1cc(O)c(-c2n[nH]cc2-c2ccc(-c3ccc(F)cc3)cc2)cc1Cl` [Example 62], below 10 µM. Same read-out and setting: under `Oc1cc(O)c(-c2n[nH]cc2-c2ccccc2F)cc1Cl` [Example 65] stands below 10 µM; under `Oc1cc(O)c(-c2n[nH]cc2-c2cccc(Br)c2)cc1Cl` [Example 66], below 10 µM.

`Oc1cc(O)c(-c2n[nH]cc2-c2cccc(OCCF)c2)cc1Cl` [Example 67]: the half-maximal inhibitory concentration (IC50) is below 10 µM. Consider `COc1ccc(-c2cccc(-c3c[nH]nc3-c3cc(Cl)c(O)cc3O)c2)cc1OC` [Example 68], for which the IC50 is 10 to 100 µM. Same read-out and setting: in the case of `Cc1[nH]nc(-c2cc(Cl)c(O)cc2O)c1-c1ccccc1Br` [Example 69] it was 10 to 100 µM; in that of `Cc1n[nH]c(-c2cc(Cl)c(O)cc2O)c1-c1ccc(OCCCC#N)cc1` [Example 70], below 10 µM; in that of `COc1ccccc1-c1c[nH]nc1-c1cc(Cl)c(O)cc1O` [Example 71], 10 to 100 µM.

In the case of `CCOc1cccc(-c2ccc(-c3c[nH]nc3-c3cc(Cl)c(O)cc3O)cc2)c1` [Example 72], the IC50 is below 10 µM. On the same count and under the same terms, in the case of `N#CCCCOc1cccc(-c2c[nH]nc2-c2cc(Cl)c(O)cc2O)c1` [Example 73] it was below 10 µM. As for `N#CCCCOc1ccccc1-c1c[nH]nc1-c1cc(Cl)c(O)cc1O` [Example 74], the IC50 is below 10 µM. Consider `O=C(O)CCCOc1ccc(-c2c[nH]nc2-c2cc(Cl)c(O)cc2O)cc1` [Example 75], for which the IC50 is below 10 µM. Same read-out and setting: in the case of `Oc1ccc(-c2c[nH]nc2-c2cc(Cl)c(O)cc2O)cc1` [Example 76] it was below 10 µM.

Take `COc1cccc(-c2c[nH]nc2-c2cc(Cl)c(O)cc2O)c1` [Example 77]: the IC50 was below 10 µM. Same read-out and setting: under `Cc1[nH]nc(-c2cc(Cl)c(O)cc2O)c1-c1ccccc1` [Example 78] stands below 10 µM; under `CCc1cc(-c2n[nH]cc2-c2ccc(Br)cc2)c(O)cc1O` [Example 79], below 10 µM; under `CCc1cc(-c2n[nH]cc2-c2ccc([N+](=O)[O-])cc2)c(O)cc1OC` [Example 80], 10 to 100 µM. Regarding `CCc1cc(-c2n[nH]c(C)c2-c2nc3ccccc3n2C)c(O)cc1O` [Example 82], the 50% inhibitory concentration (IC50) was in the range of 10 to 100 µM. Same read-out and setting: under `CCc1cc(-c2n[nH]cc2-c2ccc3c(c2)OCCO3)c(O)cc1O` [Example 83] stands below 10 µM; under `CCc1cc(-c2n[nH]c(C(F)(F)F)c2-c2nc3ccccc3s2)c(O)cc1O` [Example 84], 10 to 100 µM; under `Cc1[nH]nc(-c2ccc(O)cc2O)c1-c1ccc2c(c1)OCCCO2` [Example 86], above 10 µM. Regarding `CCc1cc(-c2n[nH]cc2-c2ccc3c(c2)OCO3)c(O)cc1O` [Example 87], the IC50 is below 10 µM.

Consider `CCCc1cc(-c2n[nH]c(C)c2-c2ccc3c(c2)OCCO3)c(O)cc1O` [Example 88], for which the IC50 was 10 to 100 µM. As to `Cc1nc(-c2c[nH]nc2-c2cc(C)c(O)cc2O)cs1` [Example 90], the IC50 lay in the range of 10 to 100 µM. Take `CCc1cc(-c2n[nH]cc2-c2cscn2)c(O)cc1O` [Example 91]: the IC50 lay in the range of 10 to 100 µM. The same measure, in the same setting: in the case of `COc1ccc(-c2c(-c3cc(-c4ccccc4)c(O)cc3O)n[nH]c2C)cc1` [Example 94] it was below 10 µM; in that of `COc1ccc(-c2c(-c3cc(CCc4ccccc4)c(O)cc3O)n[nH]c2C)cc1` [Example 95], below 10 µM. For the molecule `CCCc1cc(-c2[nH]ncc2-c2ccc(C(=O)OCC)o2)c(O)cc1O` [Example 97], the IC50 was 10 to 100 µM. On the same count and under the same terms, in the case of `CCCc1cc(-c2n[nH]c(C)c2-c2ccc(C(=O)OCC)o2)c(O)cc1O` [Example 98] it was 10 to 100 µM. Same read-out and setting: in the case of `CCc1cc(-c2[nH]nc(CCC(=O)O)c2-c2nc3ccccc3n2C)c(O)cc1O` [Example 99] it was 10 to 100 µM.

For the molecule `CCCc1cc(-c2n[nH]c(C)c2-c2nc3ccccc3s2)c(O)cc1O` [Example 100], the IC50 fell in the range of 10 to 100 µM. For `CCc1cc(-c2n[nH]cc2-c2ncc(C)s2)c(O)cc1O` [Example 101], the 50% inhibitory concentration (IC50) lay in the range of 10 to 100 µM.

Consider `CCc1cc(-c2n[nH]c(C(=O)O)c2-c2ncc(C)s2)c(O)cc1O` [Example 102], for which the IC50 was 10 to 100 µM. In the case of `CCc1cc(-c2n[nH]c(C(F)(F)F)c2-c2ccccc2)c(O)cc1O` [Example 103], the concentration for half-maximal inhibition (IC50) was in the range of 10 to 100 µM.

In the case of `COc1ccc(-c2c(-c3cc(Cc4ccccc4)c(O)cc3O)n[nH]c2C)cc1` [Example 104, 4-benzyl-6-[4-(4-methoxy-phenyl)-5-methyl-1H-pyrazol-3-yl]-benzene-1,3-diol], the 50% inhibitory concentration (IC50) was below 10 µM. `Cc1c(CC(=O)NCc2ccc(-c3c[nH]nc3-c3cc(Cl)c(O)cc3O)cc2)c(=O)oc2cc(N)c(S(=O)(=O)O)cc12` [Example 105]: the IC50 is below 10 µM.

The same test, now with this note: malachite green assay, 1 mM ATP; ±SD if n=3–5; read-out: HSP90 ATPase inhibition IC50.
In the case of `CCCc1cc(-c2n[nH]c(C)c2-c2ccc3c(c2)OCCO3)c(O)cc1O` [CCT018156], the 50% inhibitory concentration (IC50) came to 52.8 ± 12 µM.

For the molecule `CCCc1cc(-c2n[nH]c(C)c2-c2ccc3c(c2)OCO3)c(O)cc1O` [CCT018158], the half-maximal inhibitory concentration (IC50) worked out at 19 µM.
